Results taken from ChEMBL document CHEMBL1201862, “PubChem BioAssay data set” (2004).
The source made the active and inactive calls.

How the values were obtained:
Tumor necrosis factor = Tumor necrosis factor (Homo sapiens, UniProt P01375); test: analog potency on TNFa NF-kB signaling – cell-based, revised, SAR follow-up (AID 2337); assay type: functional
[1] = biological target: T1, Nucleotide-binding oligomerization domain-containing protein 1 (Homo sapiens, UniProt Q9Y239); test: blockers of NOD1 pathway activity – revised, SAR follow-up (AID 2333); assay type: functional
T1 sequence (Q9Y239 whole entry): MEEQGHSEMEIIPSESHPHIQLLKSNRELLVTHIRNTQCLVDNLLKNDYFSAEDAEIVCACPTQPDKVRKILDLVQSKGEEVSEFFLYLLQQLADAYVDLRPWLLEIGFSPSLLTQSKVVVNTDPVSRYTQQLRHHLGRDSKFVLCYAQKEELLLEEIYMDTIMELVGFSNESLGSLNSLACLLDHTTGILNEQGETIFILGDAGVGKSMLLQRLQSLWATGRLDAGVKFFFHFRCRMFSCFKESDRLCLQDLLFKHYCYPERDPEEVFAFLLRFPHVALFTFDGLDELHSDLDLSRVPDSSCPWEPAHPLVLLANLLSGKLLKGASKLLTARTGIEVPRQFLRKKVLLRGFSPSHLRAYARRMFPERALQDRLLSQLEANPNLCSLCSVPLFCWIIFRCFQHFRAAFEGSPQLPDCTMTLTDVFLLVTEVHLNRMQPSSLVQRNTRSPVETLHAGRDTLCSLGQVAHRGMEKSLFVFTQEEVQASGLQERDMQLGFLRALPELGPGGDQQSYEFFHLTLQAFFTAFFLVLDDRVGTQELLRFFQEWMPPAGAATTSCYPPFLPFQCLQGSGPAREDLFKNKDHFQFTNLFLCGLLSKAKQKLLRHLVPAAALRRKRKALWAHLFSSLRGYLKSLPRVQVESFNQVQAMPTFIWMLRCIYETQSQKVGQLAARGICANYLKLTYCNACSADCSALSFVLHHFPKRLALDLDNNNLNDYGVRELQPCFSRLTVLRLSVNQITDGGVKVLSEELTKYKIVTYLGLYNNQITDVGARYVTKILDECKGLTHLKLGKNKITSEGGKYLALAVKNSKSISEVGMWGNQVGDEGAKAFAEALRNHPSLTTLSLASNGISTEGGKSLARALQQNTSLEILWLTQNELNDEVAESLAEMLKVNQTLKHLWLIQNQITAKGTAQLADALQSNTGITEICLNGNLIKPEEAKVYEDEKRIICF

HEK293 = test: cells; settings: Homo sapiens
[2] = biological target: Potassium voltage-gated channel subfamily KQT member 2 (Rattus norvegicus, UniProt O88943); test: rat KCNQ2 current potentiators – automated patch clamp, KCNQ2-CHO cells, SAR follow-up (AID 493113); assay type: functional
[3] = biological target: Intestinal-type alkaline phosphatase (Mus musculus, UniProt P24822); test: PubChem AID 488785; assay type: functional
Sequence of Intestinal-type alkaline phosphatase (Mus musculus, UniProt P24822) (P24822 whole entry): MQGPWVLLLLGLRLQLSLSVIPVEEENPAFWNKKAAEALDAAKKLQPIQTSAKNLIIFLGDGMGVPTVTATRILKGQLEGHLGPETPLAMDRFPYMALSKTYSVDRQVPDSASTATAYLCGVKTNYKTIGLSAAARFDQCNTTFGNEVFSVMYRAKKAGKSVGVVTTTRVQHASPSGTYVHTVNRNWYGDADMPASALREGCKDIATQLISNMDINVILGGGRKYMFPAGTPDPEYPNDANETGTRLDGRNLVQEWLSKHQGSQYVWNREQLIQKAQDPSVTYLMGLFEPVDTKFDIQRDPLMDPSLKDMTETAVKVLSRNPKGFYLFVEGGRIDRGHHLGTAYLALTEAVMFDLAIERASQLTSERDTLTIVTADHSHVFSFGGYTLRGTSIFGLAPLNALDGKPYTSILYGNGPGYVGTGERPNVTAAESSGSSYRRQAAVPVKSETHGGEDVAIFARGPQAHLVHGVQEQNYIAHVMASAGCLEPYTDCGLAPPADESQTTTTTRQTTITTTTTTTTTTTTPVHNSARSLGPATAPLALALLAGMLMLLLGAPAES

[4] = biological target: T2, Alkaline phosphatase, tissue-nonspecific isozyme (Homo sapiens, UniProt P05186); test: TNAP enzyme inhibition by screening hits, dose response, selectivity assay for mouse IAP inhibitor project, biochemical, human TNAP, uHTS hits (AID 488906); assay type: functional
T2 sequence (P05186 whole entry): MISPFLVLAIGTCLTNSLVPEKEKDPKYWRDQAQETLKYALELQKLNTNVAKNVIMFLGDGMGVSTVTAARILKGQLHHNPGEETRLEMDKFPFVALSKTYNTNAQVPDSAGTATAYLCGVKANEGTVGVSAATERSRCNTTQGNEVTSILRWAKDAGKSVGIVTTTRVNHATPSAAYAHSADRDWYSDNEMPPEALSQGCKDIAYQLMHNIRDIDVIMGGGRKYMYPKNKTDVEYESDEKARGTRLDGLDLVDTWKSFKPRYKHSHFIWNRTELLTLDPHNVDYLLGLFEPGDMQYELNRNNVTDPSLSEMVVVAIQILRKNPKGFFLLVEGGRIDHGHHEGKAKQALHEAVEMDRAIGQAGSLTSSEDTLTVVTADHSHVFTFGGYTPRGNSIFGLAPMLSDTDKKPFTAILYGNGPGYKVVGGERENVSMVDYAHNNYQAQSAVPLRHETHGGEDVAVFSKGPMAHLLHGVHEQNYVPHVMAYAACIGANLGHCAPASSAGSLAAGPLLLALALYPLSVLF

[5] = biological target: Intestinal-type alkaline phosphatase (Homo sapiens, UniProt P09923); test: inhibition of human intestinal alkaline phosphatase – biochemical, dose response (AID 488876); assay type: functional
[6] = restored growth of temperature-sensitive Burl-1 yeast – whole organism, S. cerevisiae, Burl-1 ts mutant, luminescence, counter-screen for SUMOylation pathway inhibitor project, dose response (AID 463199); assay type: functional
[7] = biological target: T3, Dual specificity protein phosphatase 3 (Homo sapiens, UniProt P51452); test: VHR1 phosphatase inhibitors, primary screen, biochemical, absorbance, uHTS (AID 1654)
T3 sequence (P51452 whole entry): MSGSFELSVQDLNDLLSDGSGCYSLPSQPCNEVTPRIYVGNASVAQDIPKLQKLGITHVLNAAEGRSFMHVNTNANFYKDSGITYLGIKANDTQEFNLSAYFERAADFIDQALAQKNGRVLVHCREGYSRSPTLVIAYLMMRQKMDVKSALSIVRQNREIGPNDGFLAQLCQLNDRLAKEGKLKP

[8] = biological target: T4, Voltage-gated N-type calcium channel alpha-1B subunit/Amyloid beta A4 precursor protein-binding family A member 1 (Homo sapiens, UniProt Q00975+Q02410); assay type: protein assay
T4 sequence (Q00975 whole entry): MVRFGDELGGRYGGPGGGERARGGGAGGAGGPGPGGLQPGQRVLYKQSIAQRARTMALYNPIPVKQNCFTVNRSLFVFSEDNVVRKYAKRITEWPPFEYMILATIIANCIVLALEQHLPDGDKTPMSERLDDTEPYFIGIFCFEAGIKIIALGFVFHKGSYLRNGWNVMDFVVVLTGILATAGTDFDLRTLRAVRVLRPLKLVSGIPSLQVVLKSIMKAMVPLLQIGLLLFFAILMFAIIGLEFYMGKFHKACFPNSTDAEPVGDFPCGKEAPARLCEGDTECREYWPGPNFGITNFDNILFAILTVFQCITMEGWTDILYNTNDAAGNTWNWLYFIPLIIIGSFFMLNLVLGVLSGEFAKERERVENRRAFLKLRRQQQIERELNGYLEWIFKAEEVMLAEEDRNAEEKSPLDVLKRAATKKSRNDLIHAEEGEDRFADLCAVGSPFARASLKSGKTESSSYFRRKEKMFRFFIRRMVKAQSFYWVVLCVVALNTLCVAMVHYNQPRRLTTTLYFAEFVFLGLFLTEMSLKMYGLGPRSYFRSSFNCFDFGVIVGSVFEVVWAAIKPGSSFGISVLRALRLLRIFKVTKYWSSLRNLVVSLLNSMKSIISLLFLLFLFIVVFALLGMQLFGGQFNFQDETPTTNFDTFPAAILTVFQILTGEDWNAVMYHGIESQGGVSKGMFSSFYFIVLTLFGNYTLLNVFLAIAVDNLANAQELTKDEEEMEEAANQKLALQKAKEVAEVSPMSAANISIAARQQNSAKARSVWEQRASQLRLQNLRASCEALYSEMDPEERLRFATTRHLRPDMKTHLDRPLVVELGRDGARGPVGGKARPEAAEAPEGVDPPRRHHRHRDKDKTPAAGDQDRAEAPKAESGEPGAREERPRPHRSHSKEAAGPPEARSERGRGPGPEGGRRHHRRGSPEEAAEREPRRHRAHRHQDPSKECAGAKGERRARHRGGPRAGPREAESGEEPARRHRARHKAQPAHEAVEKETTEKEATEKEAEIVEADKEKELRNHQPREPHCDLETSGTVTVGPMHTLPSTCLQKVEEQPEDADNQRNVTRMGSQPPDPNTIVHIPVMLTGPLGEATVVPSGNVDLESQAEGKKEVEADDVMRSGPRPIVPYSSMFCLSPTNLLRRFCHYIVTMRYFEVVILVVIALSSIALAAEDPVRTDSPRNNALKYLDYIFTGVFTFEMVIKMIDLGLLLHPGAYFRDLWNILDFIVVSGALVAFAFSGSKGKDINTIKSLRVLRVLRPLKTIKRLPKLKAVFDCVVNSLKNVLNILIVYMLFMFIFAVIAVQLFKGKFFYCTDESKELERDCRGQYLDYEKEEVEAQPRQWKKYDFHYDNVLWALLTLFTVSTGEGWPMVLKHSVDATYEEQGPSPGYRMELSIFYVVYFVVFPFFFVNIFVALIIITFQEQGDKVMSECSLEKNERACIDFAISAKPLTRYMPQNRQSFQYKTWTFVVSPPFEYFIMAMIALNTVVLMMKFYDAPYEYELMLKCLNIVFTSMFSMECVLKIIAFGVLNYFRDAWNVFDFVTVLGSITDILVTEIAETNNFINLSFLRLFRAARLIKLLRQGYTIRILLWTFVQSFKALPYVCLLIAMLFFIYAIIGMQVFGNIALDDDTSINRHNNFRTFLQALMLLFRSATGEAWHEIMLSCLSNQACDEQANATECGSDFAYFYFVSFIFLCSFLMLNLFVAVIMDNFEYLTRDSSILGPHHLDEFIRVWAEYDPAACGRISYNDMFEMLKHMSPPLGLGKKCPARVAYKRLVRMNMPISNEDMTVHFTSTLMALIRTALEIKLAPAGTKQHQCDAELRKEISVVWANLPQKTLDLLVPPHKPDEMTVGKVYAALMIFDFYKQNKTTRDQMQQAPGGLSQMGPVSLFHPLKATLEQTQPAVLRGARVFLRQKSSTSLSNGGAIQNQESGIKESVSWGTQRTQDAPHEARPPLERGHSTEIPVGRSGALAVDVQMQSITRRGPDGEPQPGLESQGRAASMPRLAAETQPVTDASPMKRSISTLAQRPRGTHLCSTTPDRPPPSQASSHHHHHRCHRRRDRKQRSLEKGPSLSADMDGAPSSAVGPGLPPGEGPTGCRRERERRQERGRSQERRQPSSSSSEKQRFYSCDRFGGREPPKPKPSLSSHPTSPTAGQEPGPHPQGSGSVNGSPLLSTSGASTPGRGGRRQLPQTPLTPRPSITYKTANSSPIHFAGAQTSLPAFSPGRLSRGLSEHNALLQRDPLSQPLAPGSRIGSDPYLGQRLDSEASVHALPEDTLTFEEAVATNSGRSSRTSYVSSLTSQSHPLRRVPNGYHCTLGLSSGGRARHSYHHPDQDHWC
T4 sequence (Q02410 whole entry): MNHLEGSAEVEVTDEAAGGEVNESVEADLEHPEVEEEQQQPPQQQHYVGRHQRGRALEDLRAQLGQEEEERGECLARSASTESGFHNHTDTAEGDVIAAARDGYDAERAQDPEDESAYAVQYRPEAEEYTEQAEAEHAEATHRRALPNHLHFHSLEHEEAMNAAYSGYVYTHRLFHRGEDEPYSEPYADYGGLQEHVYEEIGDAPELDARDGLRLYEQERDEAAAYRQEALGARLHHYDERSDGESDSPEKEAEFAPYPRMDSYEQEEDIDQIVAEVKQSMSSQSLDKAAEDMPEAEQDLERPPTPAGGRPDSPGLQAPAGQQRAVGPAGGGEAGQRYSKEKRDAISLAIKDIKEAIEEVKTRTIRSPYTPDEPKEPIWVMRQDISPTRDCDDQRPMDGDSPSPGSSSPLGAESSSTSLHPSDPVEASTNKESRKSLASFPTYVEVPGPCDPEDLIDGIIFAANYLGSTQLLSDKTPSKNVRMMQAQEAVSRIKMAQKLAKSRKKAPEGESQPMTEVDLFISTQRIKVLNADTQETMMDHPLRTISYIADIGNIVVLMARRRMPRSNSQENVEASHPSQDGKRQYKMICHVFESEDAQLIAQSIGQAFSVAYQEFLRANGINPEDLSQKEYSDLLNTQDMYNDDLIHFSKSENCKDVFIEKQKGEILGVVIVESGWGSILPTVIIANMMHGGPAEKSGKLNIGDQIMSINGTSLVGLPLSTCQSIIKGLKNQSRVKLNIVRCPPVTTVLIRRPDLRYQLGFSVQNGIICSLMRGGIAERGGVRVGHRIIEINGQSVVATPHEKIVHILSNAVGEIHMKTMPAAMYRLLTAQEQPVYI

[9] = biological target: E3 ubiquitin-protein ligase XIAP (Homo sapiens, UniProt P98170); test: Counter Screen using XIAP-Bir3 for Chemical Antagonists of Bir1/2 domains of IAP-family anti-apoptotic proteins. [Related pubchem assays (depositor defined):AID1018, AID1449, AID1514, AID1638, AID1749, AID1750, AID488957, AID488963]
[10] = biological target: T4, Voltage-gated N-type calcium channel alpha-1B subunit/Amyloid beta A4 precursor protein-binding family A member 1; assay type: protein assay; remark: listed apart in the source
[11] = biological target: T3, Dual specificity protein phosphatase 3; test: VHR1 phosphatase inhibitors, biochemical (AID 1878)
[12] = biological target: T5, Dual specificity protein phosphatase 6 (Rattus norvegicus, UniProt Q64346); test: inhibition of rat DUSP6 enzyme activity – biochemical, in vitro, primary screen (AID 425)
T5 sequence (Q64346 whole entry): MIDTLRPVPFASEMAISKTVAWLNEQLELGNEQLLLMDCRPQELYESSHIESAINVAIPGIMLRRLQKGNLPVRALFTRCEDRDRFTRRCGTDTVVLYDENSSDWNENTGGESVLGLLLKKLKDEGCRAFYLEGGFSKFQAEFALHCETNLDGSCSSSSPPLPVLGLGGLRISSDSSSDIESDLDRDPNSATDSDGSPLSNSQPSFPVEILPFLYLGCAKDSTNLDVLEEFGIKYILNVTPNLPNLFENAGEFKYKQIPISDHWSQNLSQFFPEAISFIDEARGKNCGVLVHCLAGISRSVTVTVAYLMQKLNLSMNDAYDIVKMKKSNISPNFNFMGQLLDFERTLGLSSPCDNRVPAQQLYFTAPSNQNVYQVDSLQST

[13] = biological target: T6, Mannose-6-phosphate isomerase (Homo sapiens, UniProt P34949); test: phosphomannose isomerase inhibition – biochemical, fluorescence intensity, confirmation (AID 1535)
T6 sequence (P34949 whole entry): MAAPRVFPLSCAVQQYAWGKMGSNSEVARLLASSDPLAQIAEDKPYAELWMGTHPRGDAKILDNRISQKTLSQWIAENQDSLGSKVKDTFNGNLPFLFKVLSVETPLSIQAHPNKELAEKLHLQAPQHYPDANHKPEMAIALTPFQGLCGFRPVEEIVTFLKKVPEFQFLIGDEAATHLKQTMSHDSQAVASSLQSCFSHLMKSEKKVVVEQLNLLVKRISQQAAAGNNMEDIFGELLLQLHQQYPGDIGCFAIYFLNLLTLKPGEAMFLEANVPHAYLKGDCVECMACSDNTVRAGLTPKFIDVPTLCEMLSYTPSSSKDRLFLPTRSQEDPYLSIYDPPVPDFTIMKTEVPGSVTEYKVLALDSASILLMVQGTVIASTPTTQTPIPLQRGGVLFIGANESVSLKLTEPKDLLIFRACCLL

Phosphomannomutase 2 = Phosphomannomutase 2 (Homo sapiens, UniProt O15305); test: Counter screen SAR assay for PMM2 inhibitors via a fluorescence intensity assay. [Related pubchem assays (depositor defined):AID1545, AID1574]
CAAX prenyl protease 2 = CAAX prenyl protease 2 (Saccharomyces cerevisiae S288c, UniProt Q03530); assay type: biochemical
Sequence of CAAX prenyl protease 2 (Q03530 whole entry): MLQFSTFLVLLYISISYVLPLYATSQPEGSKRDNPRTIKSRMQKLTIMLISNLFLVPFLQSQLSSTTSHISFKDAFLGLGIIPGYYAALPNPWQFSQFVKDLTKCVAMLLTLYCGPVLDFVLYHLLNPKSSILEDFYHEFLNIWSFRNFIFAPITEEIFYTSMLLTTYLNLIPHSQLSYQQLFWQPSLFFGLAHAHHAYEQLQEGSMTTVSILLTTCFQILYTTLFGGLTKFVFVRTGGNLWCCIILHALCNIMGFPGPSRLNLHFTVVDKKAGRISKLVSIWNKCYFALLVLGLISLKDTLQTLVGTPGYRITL

CAAX prenyl protease 1 = CAAX prenyl protease 1 (Saccharomyces cerevisiae S288c, UniProt P47154); test: yeast CAAX protease Ste24 inhibition – biochemical, S. cerevisiae, plate reader, cherry-pick, dose response (AID 488815)
Sequence of CAAX prenyl protease 1 (P47154 whole entry): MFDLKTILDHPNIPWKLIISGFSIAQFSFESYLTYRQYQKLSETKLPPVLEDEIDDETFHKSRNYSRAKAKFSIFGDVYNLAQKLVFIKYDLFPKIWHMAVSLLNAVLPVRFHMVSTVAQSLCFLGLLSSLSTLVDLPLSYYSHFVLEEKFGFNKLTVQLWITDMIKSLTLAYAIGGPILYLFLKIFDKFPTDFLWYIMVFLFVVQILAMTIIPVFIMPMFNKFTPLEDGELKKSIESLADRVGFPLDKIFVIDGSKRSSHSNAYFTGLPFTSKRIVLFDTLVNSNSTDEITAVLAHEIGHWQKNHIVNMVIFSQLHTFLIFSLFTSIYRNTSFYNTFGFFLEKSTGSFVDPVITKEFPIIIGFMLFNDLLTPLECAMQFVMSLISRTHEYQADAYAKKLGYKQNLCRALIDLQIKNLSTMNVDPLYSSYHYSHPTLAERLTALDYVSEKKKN

Sequence of Tumor necrosis factor (P01375 whole entry, the tested form may be a part): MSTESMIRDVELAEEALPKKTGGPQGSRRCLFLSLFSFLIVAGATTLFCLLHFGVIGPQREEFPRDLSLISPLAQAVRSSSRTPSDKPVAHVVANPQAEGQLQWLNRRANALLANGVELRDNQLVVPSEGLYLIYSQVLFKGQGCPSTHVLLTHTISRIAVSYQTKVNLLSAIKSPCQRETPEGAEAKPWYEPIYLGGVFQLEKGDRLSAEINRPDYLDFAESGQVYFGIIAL

## Cc1ccc([N+](=O)[O-])cc1NC(=O)c1cc(Cl)c2ccccc2c1O
Tumor necrosis factor
  IC50: 0.206 µM (active)
[1]
  IC50: 0.17 µM (active)
HEK293
  IC50: 1.17 µM (active)

## Cc1cc(C)c(NC(=O)CCc2ccccc2)c(C)c1
[2]
  EC50: 1.6 µM (active)

## Cc1cc(Cn2nc(-c3ccccc3)cc2C(=O)NCc2cccc(C(F)(F)F)c2)on1
[3]
  IC50: 3.4 µM (active)
[4]
  IC50: 31 µM (active)
[5]
  IC50: > 100 µM (inactive)

## COc1ccc(Cl)cc1N(C(=O)c1ccco1)C(C(=O)NC1CCCC1)c1ccncc1 (stereo not drawn)
[6]
  AC50: 104 µM (active)

## CCOC(=O)C1=C(C)N=c2s/c(=C\c3ccc(OCC(=O)O)cc3)c(=O)n2C1c1ccc(Cl)cc1 (stereo not drawn)
[7]
  IC50: 11.3 µM (active)
[8]
  IC50: 33.7 µM (active)
[9]
  IC50: > 20 µM (inactive)
[10]
  IC50: > 50 µM (inactive)
[11]
  IC50: 8.8 µM (active)
[12]
  IC50: > 158 µM (not active)

## FC(F)(F)Oc1cccc(/N=c2\ssnc2Cl)c1
[13]
  IC50: 27.5 µM (active)
Phosphomannomutase 2
  IC50: > 100 µM (inactive)

## CCOc1cccc(-c2c(C(=O)N/N=C/c3c(F)cccc3Cl)nnn2-c2nonc2N)c1
CAAX prenyl protease 2
  AC50: 9 µM (active)
CAAX prenyl protease 1
  AC50: > 100 µM (inactive)
